# Measurements: PubChem BioAssay AID328 (DTP/NCI, 2004)
# “And” between values parts separate entries of the source, which are not always exact repeats. Equal values may be shown once. Toxic doses and inconclusive results are not listed.
# System: BDF1 mice, P388 leukemia ip, median survival T/C
# Experiment: NCI In Vivo Anticancer Drug Screen. Data for tumor model P388 Leukemia (intraperitoneal) in B6D2F1 (BDF1) mice
# Conditions: endpoint: median survival time, higher = longer survival
# Outline: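 Antitumour effect was judged in vivo: survival in drug-treated mice, normalised to that of vehicle-dosed controls, gives the reported T/C.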
# [1] = dose: 50.0 mg/kg/injection, schedule: Q01DX009 (ip), vehicle: saline with Tween-80
# [2] = dose: 100.0 mg/kg/injection, schedule: Q01DX001 (ip), vehicle: saline sonified
# [3] = dose: 100.0 mg/kg/injection, schedule: Q01DX009 (ip), vehicle: saline with Tween-80
# [4] = dose: 200.0 mg/kg/injection, schedule: Q01DX001 (ip), vehicle: saline sonified
# [5] = dose: 200.0 mg/kg/injection, schedule: Q04DX003 (ip), vehicle: saline with Tween-80
smiles,measurement,setting,value
Cc1ccc2c(c1)Sc1ccc3ccccc3c1N2,T/C,"dose: 100.0 mg/kg/injection, schedule: Q04DX003 (ip), vehicle: saline sonified",113 % of control
same,T/C,"dose: 200.0 mg/kg/injection, schedule: Q04DX003 (ip), vehicle: saline sonified",90 % of control
same,T/C,"dose: 400.0 mg/kg/injection, schedule: Q04DX003 (ip), vehicle: saline sonified",100 % of control
CC(C)C1=CC23CCC4C(C)(C(N)=O)CCCC4(C)C2CC1C1C(=O)OC(=O)C13 (configuration not stated),T/C,"dose: 12.5 mg/kg/injection, schedule: Q01DX001 (ip), vehicle: saline with Tween-80",100 % of control
same,T/C,"dose: 25.0 mg/kg/injection, schedule: Q01DX001 (ip), vehicle: saline with Tween-80",108 % of control
same,T/C,"dose: 50.0 mg/kg/injection, schedule: Q01DX001 (ip), vehicle: saline with Tween-80",104 % of control
NNC(=O)c1ccc(Cl)c(Cl)c1,T/C,"dose: 6.25 mg/kg/injection, schedule: Q01DX009 (ip), vehicle: saline with Tween-80",113 % of control
same,T/C,"dose: 12.5 mg/kg/injection, schedule: Q01DX009 (ip), vehicle: saline with Tween-80",86 % of control
same,T/C,"dose: 12.5 mg/kg/injection, schedule: Q04DX003 (ip), vehicle: saline with Tween-80",98 % of control
same,T/C,"dose: 25.0 mg/kg/injection, schedule: Q01DX009 (ip), vehicle: saline with Tween-80",89 % of control
same,T/C,"dose: 25.0 mg/kg/injection, schedule: Q04DX003 (ip), vehicle: saline with Tween-80",107 % of control
same,T/C,[1],104 % of control
same,T/C,"dose: 50.0 mg/kg/injection, schedule: Q04DX003 (ip), vehicle: saline with Tween-80",107 % of control
same,T/C,[2],91 % of control
same,T/C,[3],97 % of control
same,T/C,"dose: 100.0 mg/kg/injection, schedule: Q04DX003 (ip), vehicle: saline with Tween-80",107 % of control
same,T/C,[4],100 % of control
same,T/C,[5],107 % of control
CC1(C)N=C(N)N=C(N)N1c1ccc(OCC(=O)Nc2ccc(S(=O)(=O)F)cc2)c(Cl)c1,T/C,"dose: 44.0 mg/kg/injection, schedule: Q04DX003 (ip), vehicle: saline",113 % of control
same,T/C,"dose: 50.0 mg/kg/injection, schedule: Q01DX009 (ip), vehicle: saline",190 % of control
same,T/C,"dose: 100.0 mg/kg/injection, schedule: Q01DX008 (ip), vehicle: saline",195 % of control
same,T/C,"dose: 100.0 mg/kg/injection, schedule: Q01DX009 (ip), vehicle: saline",205 % of control
same,T/C,"dose: 132.0 mg/kg/injection, schedule: Q04DX003 (ip), vehicle: saline",166 % of control and 200 % of control
same,T/C,"dose: 200.0 mg/kg/injection, schedule: Q01DX008 (ip), vehicle: saline",200 % of control
same,T/C,"dose: 200.0 mg/kg/injection, schedule: Q04DX003 (ip), vehicle: saline",161 % of control and 215 % of control
same,T/C,"dose: 300.0 mg/kg/injection, schedule: Q04DX003 (ip), vehicle: saline",245 % of control and 152 % of control
Nc1ncc([N+](=O)[O-])c(Cl)n1,T/C,[1],103 % of control
same,T/C,[3],111 % of control
O=CN1CCN(c2ccc([N+](=O)[O-])c3nonc23)CC1,T/C,"dose: 15.0 mg/kg/injection, schedule: Q01DX009 (ip), vehicle: saline with Tween-80",103 % of control
same,T/C,"dose: 20.0 mg/kg/injection, schedule: Q04DX003 (ip), vehicle: saline with Tween-80",100 % of control
same,T/C,"dose: 30.0 mg/kg/injection, schedule: Q01DX009 (ip), vehicle: saline with Tween-80",100 % of control
same,T/C,"dose: 40.0 mg/kg/injection, schedule: Q04DX003 (ip), vehicle: saline with Tween-80",99 % of control
same,T/C,"dose: 80.0 mg/kg/injection, schedule: Q04DX003 (ip), vehicle: saline with Tween-80",95 % of control
O=C1C(Cl)CCCCC1Cl (configuration not stated),T/C,"dose: 50.0 mg/kg/injection, schedule: Q01DX009 (ip), vehicle: Klucel (hydroxypropylcellulose) (HPC)",100 % of control
same,T/C,"dose: 100.0 mg/kg/injection, schedule: Q01DX009 (ip), vehicle: Klucel (hydroxypropylcellulose) (HPC)",100 % of control
same,T/C,"dose: 200.0 mg/kg/injection, schedule: Q01DX009 (ip), vehicle: Klucel (hydroxypropylcellulose) (HPC)",115 % of control
COc1cc(C=Nc2cc(Cl)cc(Cl)c2)ccc1N(CCCl)CCCl,T/C,"dose: 132.0 mg/kg/injection, schedule: Q04DX003 (ip), vehicle: saline with Tween-80",163 % of control
same,T/C,[5],177 % of control
same,T/C,"dose: 300.0 mg/kg/injection, schedule: Q04DX003 (ip), vehicle: saline with Tween-80",177 % of control
O=C(NOCc1cc2c(cc1Cl)OCO2)c1ccc(S(=O)(=O)F)cc1,T/C,[2],104 % of control
same,T/C,[4],86 % of control
same,T/C,"dose: 400.0 mg/kg/injection, schedule: Q01DX001 (ip), vehicle: saline sonified",86 % of control
